In patent US9200046B2, “Reporter system for high throughput screening of compounds and uses thereof” (priority 2011, dated 2015):
Counter-ions that a name gives are not always drawn. Like-named read-outs stand apart in the source and are kept apart here.

Target: Nrf2-Keap1 complex (Homo sapiens, UniProt Q14145)
Experiment: cell-based
Assay type: cell-based
Details: for activation at 16 µM / activation at 32 µM: 3 h; for activation at 16 µM: read-out: Activation 100 nL; for activation at 32 µM: read-out: Activation 200 nL
[1] = Table 2, 100 nL compound, screen run at 16 and 32 μM, 3 hr
[2] = Table 2, 200 nL compound, screen run at 16 and 32 μM, 3 hr
[3] = Table 1A, 100 nL compound, screen run at 16 and 32 μM, 3 hr
[4] = Table 1A, 200 nL compound, screen run at 16 and 32 μM, 3 hr

Sequence of Nrf2-Keap1 complex (Q14145 whole entry, one chain of several): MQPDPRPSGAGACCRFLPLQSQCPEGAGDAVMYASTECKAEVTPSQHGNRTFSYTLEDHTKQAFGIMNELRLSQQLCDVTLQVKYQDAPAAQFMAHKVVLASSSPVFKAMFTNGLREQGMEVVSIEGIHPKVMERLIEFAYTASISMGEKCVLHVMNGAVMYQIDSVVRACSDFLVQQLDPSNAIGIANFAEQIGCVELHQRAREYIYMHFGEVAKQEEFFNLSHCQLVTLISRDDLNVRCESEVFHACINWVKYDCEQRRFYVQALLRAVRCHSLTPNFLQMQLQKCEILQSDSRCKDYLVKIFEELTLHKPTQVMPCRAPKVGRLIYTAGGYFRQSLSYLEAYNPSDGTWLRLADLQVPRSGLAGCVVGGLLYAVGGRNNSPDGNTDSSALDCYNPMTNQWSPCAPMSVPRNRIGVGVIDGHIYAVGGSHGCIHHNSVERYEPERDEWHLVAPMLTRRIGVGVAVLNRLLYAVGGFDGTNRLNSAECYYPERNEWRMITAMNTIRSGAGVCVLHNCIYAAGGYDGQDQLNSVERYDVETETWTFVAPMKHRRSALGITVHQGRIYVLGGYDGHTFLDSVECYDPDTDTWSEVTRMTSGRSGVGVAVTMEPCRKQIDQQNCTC

SMILES | activation at 16 µM | activation at 32 µM | 100 nL (luminescence) [1] | 200 nL (luminescence) [2] | other results
CC(C)=CCC[C@@H](C)[C@@H]1CC[C@]2(C)C3=C(CC[C@@]12C)[C@@]1(C)CC[C@H](O)C(C)(C)[C@@H]1CC3 [EUPHOL] | 138% | 74% | 1572 | 2064 | 
CC(C)c1ccc2c(c1O)CC[C@H]1C3=C(CC[C@]21C)C(=O)OC3 [TRIPTOPHENOLIDE] | 35% | -3% | 832 | 390 | 
COc1ccc(-c2oc3ccccc3c(=O)c2O)cc1OC [3-HYDROXY-3′,4′-DIMETHOXYFLAVONE] | 85% | -6% | 1504 | 316 | fold less effective than quercetin and fisetin (flavone SAR): 2.5 fold
COc1ccc2c(c1)OC/C(=C/c1ccc(OC)c(OC)c1)C2=O [SAPPANONEATRIMETHYLETHER] | 246% | 93% | 3652 | 2586 | 
C=C1CC[C@@H]2[C@](C)(CO)[C@H](O)CC[C@@]2(C)[C@@H]1C/C=C1/C(=O)OC[C@H]1O [ANDROGRAPHOLIDE] | 78% | 11% |  |  | 100 nL (luminescence): 1404; 200 nL (luminescence): 708
COc1ccc(/C=C/C(=O)c2ccc(O)cc2O)cc1OC [2′,4′-DIHYDROXY-3,4-DIMETHOXYCHALCONE] | 321% | 185% | 5876 | 3964 | 
O=C1OCCN1/N=C/c1ccc([N+](=O)[O-])o1 [FURAZOLIDONE, reference compound] | 43% | 45% |  |  | 100 nL (luminescence): 876; 200 nL (luminescence): 1288
CC(=O)O[C@@H]1CC2C(C)(C)C=CC(=O)[C@]2(C)C2CC[C@@]3(C)[C@H](c4ccoc4)OC(=O)C4OC43[C@@]21C (some centres unmarked) [ISOGEDUNIN] |  |  | 2724 | 3188 | Activation 100 nL: 155%; Activation 200 nL: 188%
CCCCCCCCCCCCCCCc1ccco1 [AVOCADANOFURAN] |  |  | 880 | 1088 | Activation 100 nL: 59%; Activation 200 nL: 32%
CC(C)=CCCC1(C)C=Cc2c(O)c3c(c(CC=C(C)C)c2O1)OC12C(CC4CC1C(C)(C)OC2(C/C=C(/C)C(=O)O)C4O)C3=O (centres unmarked) [TETRAHYDROGAMBOGICACID] |  |  | 5480 | 2748 | Activation 100 nL: 383%; Activation 200 nL: 100%
CNc1ccccc1C(=O)N1CCc2c([nH]c3ccccc23)C1=O [RHETSININE] | 53% | 4% |  |  | 100 nL (luminescence) [3]: 1076; 200 nL (luminescence) [4]: 532
CC(=O)Nc1ccc(O)cc1 [ACETAMINOPHEN, reference compound] | 53% | 32% |  |  | 100 nL (luminescence): 996; 200 nL (luminescence): 1012; Neh2-luc reporter activation: more than 50%
COc1ccc2c(c1)OCC(Cc1ccc(OC(C)=O)c(OC)c1)C2=O (centres unmarked) |  |  | 3740 | 1388 | Activation 100 nL: 221%; Activation 200 nL: 70%
CC(C)=CCC1=C(O)C(=O)c2ccccc2C1=O [LAPACHOL] | 47% | 24% |  |  | 
COC(=O)[C@H](O)[C@H]1C(C)(C)[C@H](OC(C)=O)[C@@H]2CC3=C4CC(=O)O[C@@H](c5ccoc5)[C@]4(C)CC[C@@H]3[C@@]1(C)C2=O [SWIETENOLIDE-3-ACETATE] |  |  | 1430 | 2088 | Activation 100 nL: 70%; Activation 200 nL: 115%
CC1(C)C(=O)C=C[C@]2(C)[C@H]3CC[C@@]4(C)[C@H](c5ccoc5)OC(=O)[C@H]5O[C@]54[C@]3(C)C=C[C@@H]12 [7-DESACETOXY-6,7-DEHYDROGEDUNIN] |  |  | 1660 | 188 | Activation 100 nL: 85%; Activation 200 nL: −9%
NC(=O)c1ccc[n+]([C@@H]2O[C@H](COP(=O)([O-])OP(=O)(O)OC[C@H]3O[C@@H](n4cnc5c(N)ncnc54)[C@H](O)[C@@H]3O)[C@@H](O)[C@H]2O)c1 [NADIDE, reference compound] | 31% | 16% |  |  | 100 nL (luminescence) [3]: 640; 200 nL (luminescence) [4]: 712
COc1cc(C)c2c(c1C=O)Oc1c(c(C)c(O)c3c1C(O)OC3=O)OC2=O (centres unmarked) [[…]] | 56% | 65% | 1114 | 1952 | 
CN1CCc2cccc3c2[C@H]1Cc1ccc(O)c(O)c1-3 [APOMORPHINEHYDROCHLORIDE, reference compound] | 44% | -3% | 880 | 266 | 
CC1=CC(=O)[C@H]2C(C)(C)CCC[C@]2(C)[C@@]1(O)CCc1ccoc1 [SOLIDAGENONE] | 121% | 77% |  |  | 100 nL (luminescence) [3]: 1976; 200 nL (luminescence) [4]: 2220
COc1ccc2c(c1)OCc1c-2oc2cc(OC)ccc12 [DEHYDROVARIABILIN] | 86% | 39% | 1672 | 916 | 
NC(=O)c1ccc(N)nc1 [6-AMINONICOTINAMIDE] | 26% | 1% |  |  | 100 nL (luminescence) [3]: 756; 200 nL (luminescence) [4]: 344
CC1(C)C(C(Cl)Cl)C2(Cl)C(Cl)C(Cl)C1(Cl)C2(Cl)Cl (centres unmarked) [TOXAPHENE] | 395% | 226% | 5648 | 5632 | 
OC[C@H]1O[C@H]([S-])[C@H](O)[C@@H](O)[C@@H]1O.[Au+] [AUROTHIOGLUCOSE, reference compound] |  |  | 604 | 360 | Activation 100 nL: 27%; Activation 200 nL: 1%
C[C@]12C=CC(=O)C=C1CC[C@@H]1[C@@H]2[C@@H](O)C[C@@]2(C)[C@H]1CC[C@]2(O)C(=O)CO [PREDNISOLONE, reference compound] | 42% | 53% |  |  | 100 nL (luminescence): 864; 200 nL (luminescence): 1452
CC1(C)C(=O)C=C[C@]2(C)[C@H]3CC[C@@]4(C)[C@H](c5ccoc5)OC(=O)[C@H]5O[C@]54[C@]3(C)[C@H](O)C[C@@H]12 [DEACETYLGEDUNIN] | 69% | -7% | 1412 | 220 | 
COc1cc([C@@H]2c3cc4c(c(O)c3C[C@H]3COC(=O)[C@@H]32)OCO4)cc(OC)c1OC [beta-PELTATIN] | 62% | 21% |  |  | 100 nL (luminescence) [3]: 910; 200 nL (luminescence) [4]: 836
COc1cc(O)cc(OC)c1OC [ANTIAROL] | 74% | 81% | 1016 | 2248 | 
COc1cc([C@@H]2c3cc4c(cc3[C@H](O)[C@H]3COC(=O)[C@@H]23)OCO4)cc(OC)c1OC [PICROPODOPHYLLOTOXIN] | 32% | 57% | 848 | 1196 | 
